The supplement of paper PMC10307832

How the values were obtained:
Experiment in all cases: relative viability (nuclei count vs DMSO), 5 days (fraction); higher = more cells survive
[1] = compound: CCn1c(-c2nonc2N)nc2cnc(Oc3cccc(NC(=O)c4ccc(OCCN5CCOCC5)cc4)c3)cc21 + COc1cccc2cc(-c3nc([C@H]4CC[C@H](C(=O)O)CC4)n4ncnc(N)c34)[nH]c12 [OSI-027] (partner 0.5 µM)
Method in brief: (§1)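 The day after seeding in 1536-well plates, lung cancer cell lines were treated by pin tool with a single drug, or with a fixed anchor-drug dose together with five library-drug doses (not always all listed) in √10 steps. After 5 days, a combined fix-and-stain solution (final 0.05% Triton X-100, 1% formaldehyde, 1 ug/ml Hoechst) was added. Nuclei counted on 4× images gave relative viability as treated counts over vehicle counts, reported as the median of duplicate plates.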

Mirin + Alpelisib = compound: N=C1NC(=O)/C(=C/c2ccc(O)cc2)S1 [Mirin] + Cc1nc(NC(=O)N2CCC[C@H]2C(N)=O)sc1-c1ccnc(C(C)(C)C(F)(F)F)c1 [Alpelisib] (partner 2 µM)
Method in brief: as §1

[2] = compound: CCC1=CN=CN=C1N2CCN(CC2)CC3=NC4=C(N3)C=C(C=C4)C(F)(F)F + COc1cccc2cc(-c3nc([C@H]4CC[C@H](C(=O)O)CC4)n4ncnc(N)c34)[nH]c12 [OSI-027] (partner 0.5 µM)
Method in brief: as §1

[3] = compound: CCC1=CN=CN=C1N2CCN(CC2)CC3=NC4=C(N3)C=C(C=C4)C(F)(F)F + O=C(CCCCCCC(=O)Nc1ccccc1)NO [Vorinostat] (partner 1 µM)
Method in brief: as §1

ABC-1
relative viability ([1]; first compound 0.04 µM): 0.492 | relative viability ([1]; first compound 0.1265 µM): 0.751 | relative viability ([1]; first compound 0.4 µM): 0.272 | relative viability ([1]; first compound 1.265 µM): 0.418 | relative viability ([1]; first compound 4 µM): 0.3 | relative viability (Mirin + Alpelisib; first compound 0.25 µM): 1.34 | relative viability (Mirin + Alpelisib; first compound 0.7906 µM): 1.14 | relative viability (Mirin + Alpelisib; first compound 2.5 µM): 1.09 | relative viability (Mirin + Alpelisib; first compound 7.906 µM): 1.1 | relative viability (Mirin + Alpelisib; first compound 25 µM): 0.633 | relative viability ([2]; first compound 0.04 µM): 0.492 | relative viability ([2]; first compound 0.1265 µM): 0.416 | relative viability ([2]; first compound 0.4 µM): 0.351 | relative viability ([2]; first compound 1.265 µM): 0.507 | relative viability ([2]; first compound 4 µM): 0.555 | relative viability ([3]; first compound 0.4 µM): 0.989 | relative viability ([3]; first compound 1.265 µM): 0.84 | relative viability ([3]; first compound 4 µM): 1.03

IA-LM
relative viability (Mirin + Alpelisib; first compound 0.25 µM): 0.668 | relative viability (Mirin + Alpelisib; first compound 0.7906 µM): 0.768 | relative viability (Mirin + Alpelisib; first compound 2.5 µM): 0.797 | relative viability (Mirin + Alpelisib; first compound 7.906 µM): 0.434 | relative viability (Mirin + Alpelisib; first compound 25 µM): 0.812 | relative viability ([3]; first compound 0.1265 µM): 0.979 | relative viability ([3]; first compound 0.4 µM): 0.937 | relative viability ([3]; first compound 1.265 µM): 0.932 | relative viability ([3]; first compound 4 µM): 0.962

NCI-H441
relative viability ([1]; first compound 0.04 µM): 0.772 | relative viability ([1]; first compound 0.1265 µM): 0.721 | relative viability ([1]; first compound 1.265 µM): 0.513 | relative viability ([1]; first compound 4 µM): 0.472 | relative viability (Mirin + Alpelisib; first compound 0.25 µM): 0.537 | relative viability (Mirin + Alpelisib; first compound 0.7906 µM): 1.11 | relative viability (Mirin + Alpelisib; first compound 2.5 µM): 0.631 | relative viability (Mirin + Alpelisib; first compound 7.906 µM): 0.536 | relative viability (Mirin + Alpelisib; first compound 25 µM): 0.507 | relative viability ([2]; first compound 0.04 µM): 0.478 | relative viability ([2]; first compound 0.1265 µM): 0.611 | relative viability ([2]; first compound 0.4 µM): 0.543 | relative viability ([2]; first compound 1.265 µM): 0.56 | relative viability ([2]; first compound 4 µM): 0.6 | relative viability ([3]; first compound 0.04 µM): 0.777 | relative viability ([3]; first compound 0.1265 µM): 0.8 | relative viability ([3]; first compound 0.4 µM): 0.659 | relative viability ([3]; first compound 1.265 µM): 0.651 | relative viability ([3]; first compound 4 µM): 0.868

NCI-H1792
relative viability ([1]; first compound 0.04 µM): 0.862 | relative viability ([1]; first compound 0.1265 µM): 0.513 | relative viability ([1]; first compound 1.265 µM): 0.596 | relative viability ([1]; first compound 4 µM): 0.7 | relative viability (Mirin + Alpelisib; first compound 0.25 µM): 0.743 | relative viability (Mirin + Alpelisib; first compound 0.7906 µM): 0.691 | relative viability (Mirin + Alpelisib; first compound 2.5 µM): 0.81 | relative viability (Mirin + Alpelisib; first compound 7.906 µM): 0.613 | relative viability (Mirin + Alpelisib; first compound 25 µM): 0.641 | relative viability ([2]; first compound 0.04 µM): 0.89 | relative viability ([2]; first compound 0.1265 µM): 0.684 | relative viability ([2]; first compound 0.4 µM): 0.698 | relative viability ([2]; first compound 1.265 µM): 0.668 | relative viability ([2]; first compound 4 µM): 0.547

LXF-289
relative viability ([1]; first compound 0.04 µM): 0.924 | relative viability ([1]; first compound 0.1265 µM): 0.758 | relative viability ([1]; first compound 0.4 µM): 0.208 | relative viability ([1]; first compound 1.265 µM): 0.443 | relative viability ([1]; first compound 4 µM): 0.361 | relative viability (Mirin + Alpelisib; first compound 0.25 µM): 1.03 | relative viability (Mirin + Alpelisib; first compound 0.7906 µM): 1.05 | relative viability (Mirin + Alpelisib; first compound 2.5 µM): 1.06 | relative viability (Mirin + Alpelisib; first compound 7.906 µM): 1.13 | relative viability (Mirin + Alpelisib; first compound 25 µM): 1.03 | relative viability ([2]; first compound 0.04 µM): 0.762 | relative viability ([2]; first compound 0.1265 µM): 0.713 | relative viability ([2]; first compound 0.4 µM): 0.628 | relative viability ([2]; first compound 1.265 µM): 0.643 | relative viability ([2]; first compound 4 µM): 0.815 | relative viability ([3]; first compound 0.04 µM): 0.933 | relative viability ([3]; first compound 0.1265 µM): 0.735 | relative viability ([3]; first compound 0.4 µM): 0.718 | relative viability ([3]; first compound 1.265 µM): 0.742 | relative viability ([3]; first compound 4 µM): 0.789

HCC-827
relative viability ([1]; first compound 0.04 µM): 0.961 | relative viability ([1]; first compound 0.1265 µM): 0.855 | relative viability ([1]; first compound 0.4 µM): 0.78 | relative viability ([1]; first compound 1.265 µM): 0.707 | relative viability ([1]; first compound 4 µM): 0.756 | relative viability (Mirin + Alpelisib; first compound 0.25 µM): 1.02 | relative viability (Mirin + Alpelisib; first compound 0.7906 µM): 1.02 | relative viability (Mirin + Alpelisib; first compound 2.5 µM): 0.958 | relative viability (Mirin + Alpelisib; first compound 7.906 µM): 1.01 | relative viability (Mirin + Alpelisib; first compound 25 µM): 1.12 | relative viability ([2]; first compound 0.04 µM): 0.829 | relative viability ([2]; first compound 0.1265 µM): 0.69 | relative viability ([2]; first compound 0.4 µM): 0.719 | relative viability ([2]; first compound 4 µM): 0.673 | relative viability ([3]; first compound 0.04 µM): 0.895 | relative viability ([3]; first compound 0.1265 µM): 0.856 | relative viability ([3]; first compound 0.4 µM): 0.788 | relative viability ([3]; first compound 1.265 µM): 0.781 | relative viability ([3]; first compound 4 µM): 0.744

EMC-BAC-2
relative viability ([1]; first compound 0.04 µM): 0.364 | relative viability ([1]; first compound 0.1265 µM): 0.287 | relative viability ([1]; first compound 0.4 µM): 0.161 | relative viability ([1]; first compound 1.265 µM): 0.18 | relative viability ([1]; first compound 4 µM): 0.2 | relative viability (Mirin + Alpelisib; first compound 0.25 µM): 0.771 | relative viability (Mirin + Alpelisib; first compound 0.7906 µM): 0.838 | relative viability (Mirin + Alpelisib; first compound 2.5 µM): 0.756 | relative viability (Mirin + Alpelisib; first compound 7.906 µM): 0.698 | relative viability (Mirin + Alpelisib; first compound 25 µM): 0.685 | relative viability ([2]; first compound 0.04 µM): 0.37 | relative viability ([2]; first compound 0.1265 µM): 0.37 | relative viability ([2]; first compound 0.4 µM): 0.386 | relative viability ([2]; first compound 4 µM): 0.375 | relative viability ([3]; first compound 0.1265 µM): 0.415 | relative viability ([3]; first compound 0.4 µM): 0.422 | relative viability ([3]; first compound 1.265 µM): 0.386 | relative viability ([3]; first compound 4 µM): 0.484

NCI-H596
relative viability ([1]; first compound 0.04 µM): 0.755 | relative viability ([1]; first compound 0.1265 µM): 0.715 | relative viability ([1]; first compound 0.4 µM): 0.591 | relative viability ([1]; first compound 1.265 µM): 0.528 | relative viability ([1]; first compound 4 µM): 0.615 | relative viability (Mirin + Alpelisib; first compound 0.25 µM): 0.438 | relative viability (Mirin + Alpelisib; first compound 0.7906 µM): 0.45 | relative viability (Mirin + Alpelisib; first compound 2.5 µM): 0.481 | relative viability (Mirin + Alpelisib; first compound 7.906 µM): 0.513 | relative viability (Mirin + Alpelisib; first compound 25 µM): 0.361 | relative viability ([2]; first compound 0.04 µM): 0.723 | relative viability ([2]; first compound 0.1265 µM): 0.683 | relative viability ([2]; first compound 0.4 µM): 0.743 | relative viability ([2]; first compound 4 µM): 0.915 | relative viability ([3]; first compound 0.04 µM): 0.534 | relative viability ([3]; first compound 0.1265 µM): 0.56 | relative viability ([3]; first compound 0.4 µM): 0.618 | relative viability ([3]; first compound 1.265 µM): 0.562 | relative viability ([3]; first compound 4 µM): 0.623

NCI-H1755
relative viability ([1]; first compound 0.04 µM): 0.714 | relative viability ([1]; first compound 0.1265 µM): 0.738 | relative viability ([1]; first compound 0.4 µM): 0.466 | relative viability ([1]; first compound 1.265 µM): 0.476 | relative viability ([1]; first compound 4 µM): 0.45 | relative viability (Mirin + Alpelisib; first compound 0.25 µM): 0.926 | relative viability (Mirin + Alpelisib; first compound 0.7906 µM): 0.947 | relative viability (Mirin + Alpelisib; first compound 2.5 µM): 0.976 | relative viability (Mirin + Alpelisib; first compound 7.906 µM): 0.947 | relative viability (Mirin + Alpelisib; first compound 25 µM): 0.876 | relative viability ([2]; first compound 0.04 µM): 0.712 | relative viability ([2]; first compound 0.1265 µM): 0.691 | relative viability ([2]; first compound 0.4 µM): 0.717 | relative viability ([2]; first compound 1.265 µM): 0.458 | relative viability ([2]; first compound 4 µM): 0.663 | relative viability ([3]; first compound 0.04 µM): 0.741 | relative viability ([3]; first compound 0.1265 µM): 0.699 | relative viability ([3]; first compound 0.4 µM): 0.641 | relative viability ([3]; first compound 1.265 µM): 0.514 | relative viability ([3]; first compound 4 µM): 0.827
